Format in all cases: cell-based
The nature of data set [1]: Cytotoxicity, alamarBlue, 72 h. The conditions noted are these: human, HepG2 cells; 72 h, alamarBlue; read-out: HepG2 cells CC50. As for the experimental part:
(§1) For cytotoxicity tests, several mammalian cell lines were used. […] Primary cell cultures were also used to evaluate cytotoxicity. […] BMDM cells were differentiated for one week with 30 % […] from L929 cell line.
(§2) The in vitro cytotoxicity of the selected nitrofurans was evaluated in HepG2, RAW 264.7 cells, splenocytes and BMDM. In each well of a 96-well microtitre plate, 100 μL containing 10,000 HepG2 or RAW 264.7 cells were incubated for 24h at 37 °C and 5 % CO2 to allow the cells to settle. For primary cells, 100 μL containing 100,000 BMDM or 1,000,000 splenocytes were added to each well. Subsequently, […] of one-half serial dilutions of each compound diluted in DMEM (for HepG2 cells), RPMI medium (for RAW cells), splenocyte medium (for splenocytes) or BMDM medium supplemented with 10 % GM-CSF (for BMDM), were added to each well. The cytotoxic effect of the compounds was measured after 72 h of incubation at 37 °C and 5 % CO2. For this purpose, a 10 % (v/v) of the alamarBlue™ cell viability reagent (Invitrogen, Fisher Scientific International Inc., Pittsburgh, PA, USA) was added, and the reaction was incubated for 4 h at 37 °C and 5 % CO2. Fluorescence was measured using a Varioskan Lux spectrophotometer (ThermoFisher Scientific, Waltham, MA, USA). Positive controls consisting of 0.1 % (v/v) H2O2, and negative controls, consisting of 0.1 % (v/v) DMSO, were also included on each plate.
(§3) All experiments were carried out in triplicate and included at least three technical replicates. […] The SI was calculated from the CC50/EC50 ratio.

Data set [2] is described as follows: Cytotoxicity in primary splenocytes, alamarBlue, 72 h. The conditions noted are these: mouse, primary splenocytes from healthy, non-infected mice; 72 h, alamarBlue, uninfected mice; read-out: Splenocytes CC50. As for the experimental part: as §1, §2, §3
Data set [3] concerns L. donovani-iRFP intramacrophage amastigotes. In words: Ex vivo antileishmanial effect on intramacrophage amastigotes (infected murine splenocytes, iRFP fluorescence, 72 h). The conditions noted are these: Leishmania donovani, Splenocyte. As for the experimental part: For efficacy studies, L. donovani-iRFP, a genetically modified strain of L. donovani LV9 constitutively expressing the gene encoding the infrared fluorescent protein (iRFP) ([Melcón-Fernández et al., 2023]), was used. This strain was grown as promastigotes in Schneider's insect medium (Sigma-Aldrich, Merck, Darmstadt, Germany) supplemented with 20 % (v/v) foetal bovine serum (FBS) (Gibco, ThermoFisher Scientific, Waltham, MA, USA) and […] antibiotic cocktail (100 U/mL penicillin and 100 μg/mL streptomycin) (Hyclone, ThermoFisher Scientific, Waltham, MA, USA) at 26 °C until mice were infected ([Carballeira et al., 2016]). Axenic and intramacrophage amastigotes were isolated from six-to eight-week-old female Balb/c mice (see below) that had been infected intraperitoneally with 1.5 × 10^9 metacyclic L. donovani-iRFP promastigotes. To obtain axenic amastigotes, bone marrow was extracted from the femur and tibia of 8- to 10-week-old infected mice and passed through a 100 μm cell strainer. After centrifugation at 3500 rcf for 10 min at room temperature, cell suspensions were resuspended in medium containing 15 mM KCl; 136 mM KH2PO4; 10 mM K2HPO4.3H2O; 0.5 mM MgSO4.7H2O; 24 mM NaHCO3; 22 mM glucose; 1 mM glutamine, 1 × RPMI 1640 vitamin mix (Sigma-Aldrich, Merck, Darmstadt, Germany), 10 mM folic acid, 100 mM adenosine, 1 × RPMI amino acid mix (Sigma-Aldrich, Merck, Darmstadt, Germany), 5 mg/mL hemin, 25 mM 2-morpholinoethanesulfonic acid (MES) pH 5.6, supplemented with 10 % FBS (Gibco, ThermoFisher Scientific, Waltham, MA, USA) and antibiotic cocktail, and incubated at 37 °C and 5 % CO2. To obtain intramacrophage amastigotes, spleens from infected Balb/c mice were cut into pieces, ground with 2 mg/mL collagenase D (Merck, Darmstadt, Germany) and passed through a 100 μm cell strainer. The splenocyte-enriched cell suspension containing intramacrophage amastigotes was resuspended in RPMI medium (Gibco, Fisher Scientific International Inc., Pittsburgh, PA, USA) supplemented with 20 % FBS, 1 mM sodium pyruvate, 24 mM NaHCO3, 2 mM L-glutamine, 1 × RPMI vitamins, 25 mM HEPES pH 7.2 and antibiotic cocktail ([Ashok et al., 2016]).
The antileishmanial effect of the nitrofurans selected in this study was tested both in vitro on axenic L. donovani-iRFP amastigotes and ex vivo on intramacrophage amastigotes according to previously published methods ([Melcón-Fernández et al., 2023], [2024]; [Andrés-Rodríguez et al., 2024]). Assays were performed in a final volume of […] containing 20,000 axenic amastigotes or a number of L. donovani-iRFP-infected murine splenocytes representing 150,000 relative fluorescence units (RFU), in each well of a black 384-well microtiter plate with optical bottom. In addition, 40 μL of one-half serial dilutions of each compound in amastigotes culture medium (for axenic amastigotes) or in supplemented RPMI medium (for intramacrophage amastigotes) were added to each well. Positive (amphotericin B at a final concentration of 18 μM) and negative (0.1 % v/v DMSO) controls were included on each plate. The plates were incubated at 37 °C and 5 % CO2 for a maximum of 72 h. Fluorescence emitted by viable L. donovani-iRFP was measured on an Odyssey infrared imaging system (Li-Cor, NE, USA).
as §3

As to `NC(=O)N/N=C/c1ccc([N+](=O)[O-])o1` [Nitrofurazone], the CC50 at 72 h in data set [1] worked out at 65.5 ± 9.67 µM; in data set [2], 38.9 ± 6.32 µM. For the same molecule, the half-maximal effective concentration (EC50) in data set [3] is 490 ± 110 nM.
The corresponding values for `O=C1NN(c2ccc(F)c(Cl)c2)C(=O)C1=Cc1ccc([N+](=O)[O-])o1` [PYZD-4409, 1-(3-chloro-4-fluorophenyl)-4-[(5-nitro-2-furyl)methylene]-3,5-pyrazolidinedione] are 16.3 ± 0.56 µM, 11.7 ± 0.5 µM and more than 100000 nM.
Regarding `O=C1CN(/N=C/c2ccc([N+](=O)[O-])o2)C(=O)N1` [Nitrofurantoin], the CC50 at 72 h in data set [1] stood at 32 ± 4.58 µM; in data set [2] it was 33.2 ± 3.5 µM. In data set [3], this molecule gave a concentration giving a half-maximal response (EC50) of 2100 ± 260 nM.
For the molecule `N#Cc1ccc([N+](=O)[O-])o1` [5-nitro-2-furonitrile, 5-Nitro-2-furonitrile], the values for the CC50 at 72 h in data set [1] and in data set [2] were 21.7 ± 0.39 µM and 8.49 ± 0.52 µM, respectively. In data set [3], this molecule gave an EC50 of 1450 ± 110 nM.
